{"source": "paper PMC5218480", "about": "(PLoS ONE, 2017)", "test_system": "MV-4-11 cells", "test": "Gene expression microarray analysis (Affymetrix PrimeView) and GSEA", "type": "cell-based, human", "set-up": "RFU PODN (11730768_x_at) / Fold change /veh PODN (11730768_x_at) / RFU LINC00158 (11744669_a_at) / Fold change /veh LINC00158 (11744669_a_at) / RFU DUSP10 (11751237_a_at) / Fold change /veh DUSP10 (11751237_a_at) / RFU ID3 (11757404_x_at) / Fold change /veh ID3 (11757404_x_at) / RFU PLEKHG5 (11737974_s_at) / Fold change /veh PLEKHG5 (11737974_s_at) / RFU LRRC4B (11730491_at) / Fold change /veh LRRC4B (11730491_at) / RFU GIMAP4 (11747438_a_at) / Fold change /veh GIMAP4 (11747438_a_at) / RFU KRT8 (11758183_x_at) / Fold change /veh KRT8 (11758183_x_at) / RFU CNN1 (11734310_a_at) / Fold change /veh CNN1 (11734310_a_at) / RFU VPS37D (11726825_at) / Fold change /veh VPS37D (11726825_at) / RFU C10orf10 (11716522_x_at) / Fold change /veh C10orf10 (11716522_x_at) / RFU KIR2DL2 /// KIR2DL4 /// KIR2DL5A /// KIR2DL5B /// KIR2DS1 /// KIR2DS2 /// KIR2DS3 /// KIR2DS4 /// KIR3DL3 /// KIR3DL3 /// KIR3DS1 (11738374_at) / Fold change /veh KIR2DL2 /// KIR2DL4 /// KIR2DL5A /// KIR2DL5B /// KIR2DS1 /// KIR2DS2 /// KIR2DS3 /// KIR2DS4 /// KIR3DL3 /// KIR3DL3 /// KIR3DS1 (11738374_at) / RFU C1QL1 (11718748_at) / Fold change /veh C1QL1 (11718748_at) / RFU TMPRSS4 (11747572_a_at) / Fold change /veh TMPRSS4 (11747572_a_at) / RFU HAMP (11756126_x_at) / Fold change /veh HAMP (11756126_x_at) / RFU RNFT2 (11725882_a_at) / Fold change /veh RNFT2 (11725882_a_at) / RFU NR4A2 (11747474_a_at) / Fold change /veh NR4A2 (11747474_a_at) / RFU ABCC12 (11746883_a_at) / Fold change /veh ABCC12 (11746883_a_at) / RFU TMEM136 (11760407_x_at) / Fold change /veh TMEM136 (11760407_x_at) / RFU CLDN22 /// WWC2 (11732394_at) / Fold change /veh CLDN22 /// WWC2 (11732394_at) / RFU HLA-DPB1 (11760878_x_at) / Fold change /veh HLA-DPB1 (11760878_x_at) / RFU SPINT1 (11716480_a_at) / Fold change /veh SPINT1 (11716480_a_at) / RFU GAP43 (11754022_s_at) / Fold change /veh GAP43 (11754022_s_at) / RFU A4GNT (11735810_at) / Fold change /veh A4GNT (11735810_at) / RFU PRB3 (11715151_x_at) / Fold change /veh PRB3 (11715151_x_at) / RFU TUBB4B (11761932_at) / Fold change /veh TUBB4B (11761932_at) / RFU CAPN14 (11732068_a_at) / Fold change /veh CAPN14 (11732068_a_at) / RFU TMCC2 (11721928_a_at) / Fold change /veh TMCC2 (11721928_a_at) / RFU IRGQ (11745062_a_at) / Fold change /veh IRGQ (11745062_a_at) / RFU FAM174B (11720279_a_at) / Fold change /veh FAM174B (11720279_a_at) / RFU TMPRSS4 (11748680_a_at) / Fold change /veh TMPRSS4 (11748680_a_at) / RFU FAM212B (11763350_a_at) / Fold change /veh FAM212B (11763350_a_at) / RFU PLEKHG5 (11743358_a_at) / Fold change /veh PLEKHG5 (11743358_a_at) / RFU ZSCAN30 (11745921_a_at) / Fold change /veh ZSCAN30 (11745921_a_at) / RFU CMKLR1 (11741424_a_at) / Fold change /veh CMKLR1 (11741424_a_at) / RFU LOC101060620 /// MAPK8IP1 (11723275_at) / Fold change /veh LOC101060620 /// MAPK8IP1 (11723275_at) / RFU SPTSSB (11747773_x_at) / Fold change /veh SPTSSB (11747773_x_at) / RFU PRSS12 (11739890_at) / Fold change /veh PRSS12 (11739890_at) / RFU BIN1 (11741810_x_at) / Fold change /veh BIN1 (11741810_x_at) / RFU WNT11 (11732464_a_at) / Fold change /veh WNT11 (11732464_a_at) / RFU C10orf10 (11716521_a_at) / Fold change /veh C10orf10 (11716521_a_at) / RFU C5orf56 (11738089_at) / Fold change /veh C5orf56 (11738089_at) / RFU CYB561 (11721691_x_at) / Fold change /veh CYB561 (11721691_x_at) / RFU ANKRD19P (11752326_a_at) / Fold change /veh ANKRD19P (11752326_a_at) / RFU OR2T12 /// OR2T33 /// OR2T8 (11738714_s_at) / Fold change /veh OR2T12 /// OR2T33 /// OR2T8 (11738714_s_at) / RFU VCAN (11748164_a_at) / Fold change /veh VCAN (11748164_a_at) / RFU JSRP1 (11732532_at) / Fold change /veh JSRP1 (11732532_at) / RFU KRTAP10-11 (11738290_x_at) / Fold change /veh KRTAP10-11 (11738290_x_at) / RFU MYO3A (11730013_a_at) / Fold change /veh MYO3A (11730013_a_at) / RFU EBF3 (11725865_a_at) / Fold change /veh EBF3 (11725865_a_at) / RFU CAMK2N1 (11719241_x_at) / Fold change /veh CAMK2N1 (11719241_x_at) / RFU C5orf56 (11738088_a_at) / Fold change /veh C5orf56 (11738088_a_at) / RFU OLFML3 (11715873_a_at) / Fold change /veh OLFML3 (11715873_a_at) / RFU LOC100653217 /// NTM (11731650_a_at) / Fold change /veh LOC100653217 /// NTM (11731650_a_at) / RFU MAPK11 (11762145_a_at) / Fold change /veh MAPK11 (11762145_a_at) / RFU FIZ1 (11724087_x_at) / Fold change /veh FIZ1 (11724087_x_at) / RFU OASL (11726364_x_at) / Fold change /veh OASL (11726364_x_at) / RFU SOX15 (11748057_x_at) / Fold change /veh SOX15 (11748057_x_at) / RFU CD79A (11719716_a_at) / Fold change /veh CD79A (11719716_a_at) / RFU HIST1H1D (11736915_at) / Fold change /veh HIST1H1D (11736915_at) / RFU CASKIN2 (11723855_a_at) / Fold change /veh CASKIN2 (11723855_a_at) / RFU LOC730098 (11760151_x_at) / Fold change /veh LOC730098 (11760151_x_at) / RFU OR4N2 (11742367_at) / Fold change /veh OR4N2 (11742367_at) / RFU PRRT2 (11749266_a_at) / Fold change /veh PRRT2 (11749266_a_at) / RFU SNX32 (11753110_a_at) / Fold change /veh SNX32 (11753110_a_at) / RFU CDHR5 (11726645_a_at) / Fold change /veh CDHR5 (11726645_a_at) / RFU RCAN1 (11760418_a_at) / Fold change /veh RCAN1 (11760418_a_at) / RFU FAM167A (11723789_a_at) / Fold change /veh FAM167A (11723789_a_at) / RFU FAM26E (11764081_at) / Fold change /veh FAM26E (11764081_at) / RFU ISYNA1 (11749810_s_at) / Fold change /veh ISYNA1 (11749810_s_at) / RFU ACY1 (11761880_at) / Fold change /veh ACY1 (11761880_at) / RFU 11764098_at / Fold change /veh 11764098_at / RFU SAMD14 (11745864_x_at) / Fold change /veh SAMD14 (11745864_x_at) / RFU NPB (11741838_a_at) / Fold change /veh NPB (11741838_a_at) / RFU TMPRSS6 (11731388_a_at) / Fold change /veh TMPRSS6 (11731388_a_at) / RFU KRTAP10-2 (11738614_at) / Fold change /veh KRTAP10-2 (11738614_at) / RFU ARHGAP8 /// PRR5-ARHGAP8 (11727945_x_at) / Fold change /veh ARHGAP8 /// PRR5-ARHGAP8 (11727945_x_at) / RFU KRTAP5-7 /// NADSYN1 (11734609_at) / Fold change /veh KRTAP5-7 /// NADSYN1 (11734609_at) / RFU RASL12 (11751679_a_at) / Fold change /veh RASL12 (11751679_a_at) / RFU CDKN2B (11736163_a_at) / Fold change /veh CDKN2B (11736163_a_at) / RFU PRF1 (11729649_at) / Fold change /veh PRF1 (11729649_at) / RFU, ZNF638 /// ZNF638-IT1 / Fold change vs veh, ZNF638 /// ZNF638-IT1 / RFU, PANK3 / Fold change vs veh, PANK3 / RFU, SH3YL1 / Fold change vs veh, SH3YL1 / RFU, ZEB2 / Fold change vs veh, ZEB2 / RFU, NRIP1 / Fold change vs veh, NRIP1 / RFU, PTTG1IP / Fold change vs veh, PTTG1IP / RFU, CAPN2 / Fold change vs veh, CAPN2 / RFU, MED14 / Fold change vs veh, MED14 / RFU, SNORA58 / Fold change vs veh, SNORA58 / RFU, C1orf63 / Fold change vs veh, C1orf63 / RFU, LRRFIP1 / Fold change vs veh, LRRFIP1 / RFU, NDUFAF7 / Fold change vs veh, NDUFAF7 / RFU, SLC12A2 / Fold change vs veh, SLC12A2 / RFU, IBTK / Fold change vs veh, IBTK / RFU, ESF1 / Fold change vs veh, ESF1 / Fold change vs veh, TMEM50B / RFU, TAOK1 / Fold change vs veh, TAOK1 / RFU, ACBD3 / Fold change vs veh, ACBD3 / RFU, TMA16 / Fold change vs veh, TMA16 / RFU, RWDD3 / Fold change vs veh, RWDD3 / RFU, BCAT1 / Fold change vs veh, BCAT1 / RFU, EDEM3 / Fold change vs veh, EDEM3 / RFU, TMEM33 / Fold change vs veh, TMEM33 / RFU, WDR75 / Fold change vs veh, WDR75 / RFU, AHCTF1 / Fold change vs veh, AHCTF1 / RFU, TFRC / Fold change vs veh, TFRC / RFU, ZDHHC17 / Fold change vs veh, ZDHHC17 / RFU, NOM1 / Fold change vs veh, NOM1 / RFU, ARL8B / Fold change vs veh, ARL8B / RFU, ZBTB11 / Fold change vs veh, ZBTB11 / RFU, TAMM41 / Fold change vs veh, TAMM41 / RFU, KIAA1704 /// LOC100996395 / Fold change vs veh, KIAA1704 /// LOC100996395 / RFU, ING1 / Fold change vs veh, ING1 / RFU, TRMT61B / Fold change vs veh, TRMT61B / RFU, FUBP3 / Fold change vs veh, FUBP3 / RFU, TP53 / Fold change vs veh, TP53 / RFU, TNKS2 / Fold change vs veh, TNKS2 / RFU, ZFP14 / Fold change vs veh, ZFP14 / RFU, ACTR2 / Fold change vs veh, ACTR2 / RFU, PPP3R1 / Fold change vs veh, PPP3R1 / RFU, PIK3R1 / Fold change vs veh, PIK3R1 / RFU, HNRNPA1 / Fold change vs veh, HNRNPA1 / RFU, RNF170 / Fold change vs veh, RNF170 / RFU, ZNF28 / Fold change vs veh, ZNF28 / RFU, RNGTT / Fold change vs veh, RNGTT / RFU, OGT / Fold change vs veh, OGT / RFU, BRD1 / Fold change vs veh, BRD1 / RFU, MARS / Fold change vs veh, MARS / RFU, ZNF655 / Fold change vs veh, ZNF655 / RFU, FAHD1 / Fold change vs veh, FAHD1 / RFU, BDP1 / Fold change vs veh, BDP1 / RFU, LRRCC1 / Fold change vs veh, LRRCC1 / RFU, ARID1A / Fold change vs veh, ARID1A / RFU, ZNF146 / Fold change vs veh, ZNF146 / RFU, ZNF330 / Fold change vs veh, ZNF330 / RFU, GPN3 / Fold change vs veh, GPN3 / RFU, C9orf123 / Fold change vs veh, C9orf123 / RFU, N4BP2L2 / Fold change vs veh, N4BP2L2 / RFU, ARFIP1 / Fold change vs veh, ARFIP1 / RFU, FAM179B / Fold change vs veh, FAM179B / RFU, BCL10 / Fold change vs veh, BCL10 / RFU, UHRF1BP1L / Fold change vs veh, UHRF1BP1L / RFU, BET1 / Fold change vs veh, BET1 / RFU, CNOT2 / Fold change vs veh, CNOT2 / RFU, ZNF268 / Fold change vs veh, ZNF268 / Fold change vs veh, ZNF507 / RFU, DGCR2 / Fold change vs veh, DGCR2 / RFU, WDSUB1 / Fold change vs veh, WDSUB1 / Fold change vs veh, HSP90B1 /// MIR3652 / RFU, ADSS / Fold change vs veh, ADSS / RFU, GK / Fold change vs veh, GK / RFU, ZNF148 / Fold change vs veh, ZNF148 / RFU, TAF9 / Fold change vs veh, TAF9 / RFU, SLC1A5 / Fold change vs veh, SLC1A5 / RFU, SLMO2 / Fold change vs veh, SLMO2 / RFU, ABCC4 / Fold change vs veh, ABCC4 / RFU, LOC101060439 /// RAP1B / Fold change vs veh, LOC101060439 /// RAP1B / RFU, RFX7 / Fold change vs veh, RFX7 / RFU, GTPBP10 / Fold change vs veh, GTPBP10 / RFU, CNEP1R1 / Fold change vs veh, CNEP1R1 / RFU, BIVM-ERCC5 /// ERCC5 / Fold change vs veh, BIVM-ERCC5 /// ERCC5 / RFU, ILF3 / Fold change vs veh, ILF3 / RFU 11762660_at / Fold change /veh 11762660_at / RFU VCAN (11757783_s_at) / Fold change /veh VCAN (11757783_s_at) / RFU DDX43 (11728927_at) / Fold change /veh DDX43 (11728927_at) / RFU KRT8 (11758188_x_at) / Fold change /veh KRT8 (11758188_x_at) / RFU NKD1 (11759106_at) / Fold change /veh NKD1 (11759106_at) / RFU SRD5A1 (11742802_a_at) / Fold change /veh SRD5A1 (11742802_a_at) / RFU TPSAB1 /// TPSB2 (11721975_s_at) / Fold change /veh TPSAB1 /// TPSB2 (11721975_s_at) / RFU GSTM3 (11746129_a_at) / Fold change /veh GSTM3 (11746129_a_at) / RFU IL23R (11737362_x_at) / Fold change /veh IL23R (11737362_x_at) / RFU TMEM51 (11727254_a_at) / Fold change /veh TMEM51 (11727254_a_at) / RFU PIWIL2 (11732686_x_at) / Fold change /veh PIWIL2 (11732686_x_at) / RFU ORM1 (11744905_x_at) / Fold change /veh ORM1 (11744905_x_at) / RFU CCDC152 (11743942_at) / Fold change /veh CCDC152 (11743942_at) / RFU ECM1 (11717891_a_at) / Fold change /veh ECM1 (11717891_a_at) / RFU IL23R (11748794_a_at) / Fold change /veh IL23R (11748794_a_at) / RFU TNFAIP8L3 (11732012_x_at) / Fold change /veh TNFAIP8L3 (11732012_x_at) / RFU MBOAT4 (11741988_at) / Fold change /veh MBOAT4 (11741988_at) / RFU 11764193_at / Fold change /veh 11764193_at / RFU TMEM53 (11763286_at) / Fold change /veh TMEM53 (11763286_at) / RFU MAGEB2 (11727129_at) / Fold change /veh MAGEB2 (11727129_at) / RFU TMEM200A (11744735_a_at) / Fold change /veh TMEM200A (11744735_a_at) / RFU CCDC152 (11751479_a_at) / Fold change /veh CCDC152 (11751479_a_at) / RFU FAM211A (11726209_a_at) / Fold change /veh FAM211A (11726209_a_at) / RFU RGS16 (11746705_a_at) / Fold change /veh RGS16 (11746705_a_at) / RFU VCAN (11755009_s_at) / Fold change /veh VCAN (11755009_s_at) / RFU RHOB (11743442_s_at) / Fold change /veh RHOB (11743442_s_at) / RFU RGS16 (11720943_a_at) / Fold change /veh RGS16 (11720943_a_at) / RFU RGS16 (11720944_at) / Fold change /veh RGS16 (11720944_at) / RFU, VPS4B / Fold change vs veh, VPS4B / RFU, CREB1 / Fold change vs veh, CREB1 / RFU, DNAJC13 / Fold change vs veh, DNAJC13 / RFU, GNAQ / Fold change vs veh, GNAQ / RFU, CDK5R1 / Fold change vs veh, CDK5R1 / RFU, ZRANB3 / Fold change vs veh, ZRANB3 / RFU, CUL4A / Fold change vs veh, CUL4A / RFU, CCNY / Fold change vs veh, CCNY / RFU, UFL1 / Fold change vs veh, UFL1 / RFU, COG3 / Fold change vs veh, COG3 / RFU, DIAPH2 / Fold change vs veh, DIAPH2 / RFU, SKA2 / Fold change vs veh, SKA2 / RFU, AFF3 / Fold change vs veh, AFF3 / RFU, LMF1 / Fold change vs veh, LMF1 / RFU, IPO11 / Fold change vs veh, IPO11 / RFU, DFFB / Fold change vs veh, DFFB / RFU, FOXP1 / Fold change vs veh, FOXP1 / RFU, CARD8 / Fold change vs veh, CARD8 / RFU, STRN3 / Fold change vs veh, STRN3 / RFU, ADK / Fold change vs veh, ADK / RFU, RASSF2 / Fold change vs veh, RASSF2 / RFU, WIPF1 / Fold change vs veh, WIPF1 / RFU, LARP1B / Fold change vs veh, LARP1B / RFU, RASA1 / Fold change vs veh, RASA1 / RFU, RB1 / Fold change vs veh, RB1 / RFU, PPFIA1 / Fold change vs veh, PPFIA1 / RFU, MAT2A / Fold change vs veh, MAT2A / RFU, CCT5 / Fold change vs veh, CCT5 / RFU, WDR92 / Fold change vs veh, WDR92 / RFU, CUX1 / Fold change vs veh, CUX1 / RFU, TTC7A / Fold change vs veh, TTC7A / RFU, TMEM135 / Fold change vs veh, TMEM135 / RFU, DEPTOR / Fold change vs veh, DEPTOR / RFU, CPM / Fold change vs veh, CPM / RFU, DNAJB6 / Fold change vs veh, DNAJB6 / RFU, CACNA2D3 / Fold change vs veh, CACNA2D3 / RFU, DTX4 / Fold change vs veh, DTX4 / RFU, TFCP2 / Fold change vs veh, TFCP2 / RFU, GMCL1 /// GMCL1P1 / Fold change vs veh, GMCL1 /// GMCL1P1 / RFU, AEBP2 / Fold change vs veh, AEBP2 / RFU, SNHG1 /// SNORD22 /// SNORD25 /// SNORD26 /// SNORD27 /// SNORD28 /// SNORD29 /// SNORD31 / Fold change vs veh, SNHG1 /// SNORD22 /// SNORD25 /// SNORD26 /// SNORD27 /// SNORD28 /// SNORD29 /// SNORD31 / Fold change (Aza/veh), C12orf56 (ProbeSet 11735607_a_at) / Fold change (ACY-1035/veh), C12orf56 (ProbeSet 11735607_a_at) / Fold change (Aza/veh), FGFR1OP (ProbeSet 11751329_s_at) / Fold change (ACY-1035/veh), FGFR1OP (ProbeSet 11751329_s_at) / Fold change (Aza/veh), VPS36 (ProbeSet 11739960_a_at) / Fold change (ACY-1035/veh), VPS36 (ProbeSet 11739960_a_at) / RFU SYPL1 (11715823_x_at) / Fold change /veh SYPL1 (11715823_x_at) / RFU IGFBP7 (11715501_s_at) / Fold change /veh IGFBP7 (11715501_s_at) / RFU REEP3 (11722064_at) / Fold change /veh REEP3 (11722064_at) / RFU IGLL1 (11728026_x_at) / Fold change /veh IGLL1 (11728026_x_at): dose or concentration left out as unconfirmed", "details": "ProbeSet 11730252_s_at; LIST B", "data": [{"smiles": "Nc1ccc(-c2cccs2)cc1NC(=O)c1ccc2c(c1)cc(C1CC1)n2CCN1CCOCC1", "note": "[ACY-1035]", "values": [{"measurement": "RFU, AHCTF1", "result": 224.50, "unit": "RFU"}]}]}
